Measured values reported in patent publication US12617777B2, “GPR84 antagonists and uses thereof” (Liminal BioSciences Limited, priority 2021, dated 2026).

Biological target: T1, human GPR84 receptor (Homo sapiens, UniProt Q9NQS5)
T1 construct: host or cells: HEK293, transient transfection
Test: Gαi biosensor BRET assay in HEK293 cells (antagonism of ZQ-16)
Assay type: cell-based
Settings: for inhibition at 10 µM: HEK293, single concentration 10 μM (designated F); for IC50: HEK293 cells, antagonism of 200 nmol/L ZQ-16; for inhibition at 5 µM: HEK293, single concentration 5 μM (designated D)
Text: Background—The following assays can be used for determination of GPR84 activation in living HEK293 cells. The Gai BRET biosensor (Gagnon et al., 2018; Gales et al., 2006. Nat StructMol Biol. 13, 778-86; Saulieres et al., 2012. Nat Chem Biol. 8, 622-30) allows to directly monitor GPR84-mediated activation of Gai. The Gai biosensor consists of a Rluc8-tagged Gαi2 subunit, a GFP10-tagged Gγ2 subunit, and an untagged Gβ1. Agonist stimulation and GPR84 activation triggers a physical separation between the RLuc8-Gαi donor and the GFP10-Gγ2 acceptor, resulting in a decrease in BRET signal whose amplitude is correlated to ligand efficacy (Gales et al., 2006). Moreover, signaling functions of GPCRs are tightly regulated by endocytosis, the targeting of receptors to endosomes and their sorting to lysosomes or recycling to the plasma membrane. The early endosomes (EEs) trafficking assay (Namkung et al., 2016. Nat Commun. 7, 12178) uses Rluc8-tagged GPR84 and Renilla GFP (rGFP) attached to the FYVE domain from human endofin/zinc finger FYVE domain-containing protein 16, which binds phosphatidylinositol 3-phosphate in EEs. Agonist stimulation of GPR84-Rluc8 leads to trafficking of the receptor to EEs, and ensuing increase of the donor concentration relative to the rGFP-FYVE acceptor anchored in the same cellular compartment, and thus results in an increase in BRET signal.
Plasmids—The cDNA clones for human GPR84 receptor, human Gai2, Gp1, and Gy2 were obtained from the cDNA Resource Center (www.cdna.org). GFP10 (F64L, S147P, S202F and H231L variant of Aequorea victoria Green Fluorescent Protein) gBlocks gene fragments (Integrated DNA Technologies, IA) and linker were inserted in frame at the N-terminus of human Gγ2. Rluc8 (A55T, C124A, S130A, K136R, A143M, M185V, M253L, and S287L variant of the Renilla renformis luciferase) gBlocks gene fragment was inserted with linkers in frame in between residues 91 and 92 of Gai2 or at the C-terminus of GPR84. The FYVE domain from human endofin (residues Q739 to K806) attached in frame at the C terminus of a humanized Renilla GFP (rGFP), were synthesized as gBlocks gene fragments.
Bioluminescence Resonance Energy Transfer (BRET) Measurement—HEK293 cells were transfected with GPR84-Rluc8 and rGFP-FYVE for the EEs trafficking biosensor or with GPR84, Gαi2-Rluc8, GFP10-Gγ2, and Gβ1 for the Gαi biosensor. The following day, transiently transfected cells were seeded in 96-well white clear bottom microplates coated with poly-D-lysine and left in culture for 24 hours. Cells were washed once with Tyrode's buffer (140 mmol/L NaCl, 1 mmol/L CaCl2, 2.7 mmol/L KCl, 0.49 mmol/L MgCl2, 0.37 mmol/L NaH2PO4, 5.6 mmol/L glucose, 12 mmol/L NaHCO3, and 25 mmol/L HEPES, pH 7.5) before performing assays in Tyrode's buffer. Test compounds were incubated with cells for 5 (Gαi) or 15 (EEs) minutes at 37° C. before addition of 200 nmol/L of the GPR84 agonist ZQ-16 (2-(Hexylthio)-6-hydroxy-4(3H)-pyrimidinone) for 5 minutes at room temperature (Gαi) or 30 minutes at 37° C. (EEs). The Rluc8 substrate coelenterazine 400A (Prolume, Lakeside, AZ) was added at a final concentration of 5 μmol/L and BRET readings were collected using an Infinite M1000 microplate reader (Tecan, Morrisville, NC). BRET^2 readings between Rluc8 and GFP10 or rGFP were collected by sequential integration of the signals detected in the 370 to 450 nm (Rluc8) and 510 to 540 nm (GFP10, rGFP) windows. The BRET signal was calculated as the ratio of light emitted by acceptor (GFP10, rGFP) over the light emitted by donor (Rluc8). The values were corrected to net BRET by subtracting the background BRET signal obtained in cells transfected with Rluc8 constructs alone. Ligand-promoted net BRET values were calculated by subtracting vehicle-induced net BRET from ligand-induced net BRET.

T1 sequence (Q9NQS5 whole entry): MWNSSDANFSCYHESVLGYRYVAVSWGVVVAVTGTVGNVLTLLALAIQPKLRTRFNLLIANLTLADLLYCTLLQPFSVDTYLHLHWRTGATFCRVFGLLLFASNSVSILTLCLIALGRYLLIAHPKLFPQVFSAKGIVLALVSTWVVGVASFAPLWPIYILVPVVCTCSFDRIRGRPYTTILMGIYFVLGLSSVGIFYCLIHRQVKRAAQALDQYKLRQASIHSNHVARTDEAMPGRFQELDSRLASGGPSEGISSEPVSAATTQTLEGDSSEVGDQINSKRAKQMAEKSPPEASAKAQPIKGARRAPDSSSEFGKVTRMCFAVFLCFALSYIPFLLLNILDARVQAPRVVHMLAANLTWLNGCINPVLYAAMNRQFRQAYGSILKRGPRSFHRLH

inhibition at 10 µM [%] | Structure (SMILES) | other results
50 to 75 | Cc1cc(N2CCC2)ccc1-c1cn(CC2CCCCO2)nn1 (centres unmarked) [Compound I-157] | 
≤ 25 | Cc1cc(N2CC(F)(F)C2)ccc1-c1cn(CC2CCCCO2)nn1 (centres unmarked) [Compound I-158] | 
≤ 25 | Cc1cc(C#CCN2CCCN(C)CC2)ccc1-c1cn(CC2CCCCO2)nn1 (centres unmarked) [Compound I-159] | 
> 75 | CCc1ccc(C#CC2CC2)cc1-c1cn(CC2CCCCO2)nn1 (centres unmarked) [Compound I-160] | IC50: > 3 µM
≤ 25 | COCCn1cc(-c2ccc(C#CCNc3ccccc3)cc2C)nn1 [Compound I-161] | 
25 to 50 | COC(C)Cn1cc(-c2ccc(C#CCNc3ccccc3)cc2C)nn1 (centres unmarked) [Compound I-162] | 
≤ 25 | COC(C)(C)Cn1cc(-c2ccc(C#CCNc3ccccc3)cc2C)nn1 [Compound I-163] | 
> 75 | Cc1cc(C#CC2CC2)ccc1-c1cn(CC2CCC(C)(C)O2)nn1 (centres unmarked) [Compound I-164] | IC50: 1 to 3 µM
≤ 25 | Cc1cc(N2CC3(CCNC3)C2)ccc1-c1cn(CC2CCCCO2)nn1 (centres unmarked) [Compound I-167] | 
≤ 25 | Cc1cc(N2CC3(CCN(C)C3)C2)ccc1-c1cn(CC2CCCCO2)nn1 (centres unmarked) [Compound I-168] | 
≤ 25 | Cc1cc(N2CC3(CCN(Cc4ccccc4)C3)C2)ccc1-c1cn(CC2CCCCO2)nn1 (centres unmarked) [Compound I-169] | 
≤ 25 | CNC1CCCN(c2ccc(-c3cn(CC4CCCCO4)nn3)c(C)c2)C1 (centres unmarked) [Compound I-170] | 
> 75 | Cc1cc(N2CCCC(N(C)Cc3ccccc3)C2)ccc1-c1cn(CC2CCCCO2)nn1 (centres unmarked) [Compound I-171] | IC50: 1 to 3 µM
≤ 25 | Cc1cc(N2CCC3(CC2)CN(C)C3)ccc1-c1cn(CC2CCCCO2)nn1 (centres unmarked) [Compound I-172] | 
≤ 25 | Cc1cc(N2CCC3(CC2)CN(Cc2ccccc2)C3)ccc1-c1cn(CC2CCCCO2)nn1 (centres unmarked) [Compound I-173] | 
 | Cc1cc(C#CC2CC2)ccc1-c1cn(C[C@@H]2CCCCO2)nn1 [Compound I-174] | inhibition at 5 µM: ≤ 25%; IC50: > 3 µM
 | Cc1cc(C#CC2CC2)ccc1-c1cn(C[C@H]2CCCCO2)nn1 [Compound I-175] | inhibition at 5 µM: 50 to 75%; IC50: 1 to 3 µM
≤ 25 | Cc1ccc(C#CCNc2ccccc2)cc1-c1cn(CC2CCCCO2)nn1 (centres unmarked) [Compound I-178] | 
25 to 50 | FC(F)(F)c1ccc(C#CC2CC2)cc1-c1cn(CC2CCCCO2)nn1 (centres unmarked) [Compound I-179] | 

inhibition at 10 µM [%] | Structure (SMILES) | other results
≤ 25 | Cc1cc(C#CC2CC2)ccc1-c1cn(CC2CNCCO2)nn1 (centres unmarked) [Compound I-180] | 
≤ 25 | Cc1cc(C#CC2CC2)ccc1-c1cn(CC2CN(C)CCO2)nn1 (centres unmarked) [Compound I-181] | 
≤ 25 | Cc1cc(N2CC3(CNC3)C2)ccc1-c1cn(CC2CCCCO2)nn1 (centres unmarked) [Compound I-182] | 
≤ 25 | Cc1cc(N2CCNCC2)ccc1-c1cn(CC2CCCCO2)nn1 (centres unmarked) [Compound I-183] | 
≤ 25 | CNC1CN(c2ccc(-c3cn(CC4CCCCO4)nn3)c(C)c2)C1 (centres unmarked) [Compound I-184] | 
≤ 25 | Cc1cc(N2CC(N(C)Cc3ccccc3)C2)ccc1-c1cn(CC2CCCCO2)nn1 (centres unmarked) [Compound I-185] | 
 | Cc1cc(N2CCC3(CC2)CNC3)ccc1-c1cn(CC2CCCCO2)nn1 (centres unmarked) [Compound I-186] | inhibition at 5 µM: ≤ 25%
≤ 25 | COC(=O)N1CCCCC1Cn1cc(-c2ccc(C#CC3CC3)cc2C)nn1 (centres unmarked) [Compound I-190] | 
≤ 25 | Cc1cc(C#CC2CC2)ccc1-c1cn(CC2CCCCN2S(C)(=O)=O)nn1 (centres unmarked) [Compound I-191] | 
≤ 25 | COCC(=O)N1CCCCC1Cn1cc(-c2ccc(C#CC3CC3)cc2C)nn1 (centres unmarked) [Compound I-192] | 
25 to 50 | CC(=O)NCC#Cc1ccc(-c2cn(C[C@H]3CCCCO3)nn2)c(C)c1 [Compound I-193] | 
≤ 25 | CCn1cc(-c2ccc(-c3cn(CC4CCCCO4)nn3)c(C)c2)cn1 (centres unmarked) [Compound I-194] | 
≤ 25 | Cc1cc(C#CC2CC2)cnc1-c1cn(CC2CCOCC2)nn1 [Compound I-196] | 
50 to 75 | Cc1cc(C#CC2CC2)ccc1-c1cn(CC2CC(C)(C)O2)nn1 (centres unmarked) [Compound I-197] | 
25 to 50 | C(#CC1CC1)c1ccc(-c2cn(CC3CCCCO3)nn2)c(N2CCOCC2)c1 (centres unmarked) [Compound I-198] | 
≤ 25 | C(#CC1CC1)c1ccc(-c2cn(CC3CCCCO3)nn2)c(N2CCC2)c1 (centres unmarked) [Compound I-199] | 
25 to 50 | CN(C)c1cc(C#CC2CC2)ccc1-c1cn(CC2CCOCC2)nn1 [Compound I-200] | 
≤ 25 | Cc1ccc(C#CCNCc2ccccc2)cc1-c1cn(CC2CCCCO2)nn1 (centres unmarked) [Compound I-201] | 
> 75 | CN(C)c1cc(N2CC(C)(C)C2)ccc1-c1cn(CC2CCCCO2)nn1 (centres unmarked) [Compound I-202] | IC50: 1 to 3 µM

inhibition at 10 µM [%] | Structure (SMILES) | other results
 | CN(C)c1cc(C#CCNc2ccccc2)ccc1-c1cn(CC2CCCCO2)nn1 (centres unmarked) [Compound I-203] | inhibition at 2 µM (HEK293, single concentration 2 μM (designated A)): > 75%; IC50: 1 to 3 µM
25 to 50 | Cc1cc(C#CC2CC2)cnc1-c1cn(CC2CCCO2)nn1 (centres unmarked) [Compound I-204] | 
25 to 50 | Cc1cc(C#CCN2CCCCC2=O)ccc1-c1cn(CC2CCCCO2)nn1 (centres unmarked) [Compound I-205] | 
50 to 75 | COCc1cc(C#CC2CC2)ccc1-c1cn(CC2CCCCO2)nn1 (centres unmarked) [Compound I-206] | 
50 to 75 | Cc1cc(C#CC2CC2)ccc1-c1cn(CC2CCC(F)(F)CO2)nn1 (centres unmarked) [Compound I-207] | 
25 to 50 | Cc1cc(C#CCNC(=O)C(C)(C)C)ccc1-c1cn(CC2CCCCO2)nn1 (centres unmarked) [Compound I-208] | 
 | Cc1cc(C#CCNC(=O)c2ccccc2)ccc1-c1cn(CC2CCCCO2)nn1 (centres unmarked) [Compound I-209] | IC50: > 2 µM
 | Cc1cc(C#CC2(O)CCCC2)ccc1-c1cn(CC2CCCCO2)nn1 (centres unmarked) [Compound I-210] | IC50: 0.3 to 1 µM
≤ 25 | CC(C)c1cc(C#CC2CC2)ccc1-c1cn(CC2CCOCC2)nn1 [Compound I-212] | 
≤ 25 | Cc1ccc(N2CC(C)(C)C2)cc1-c1cn(CC2CCCCO2)nn1 (centres unmarked) [Compound I-213] | 
≤ 25 | COC(=O)c1cc(C#CC2CC2)ccc1-c1cn(CC2CCCCO2)nn1 (centres unmarked) [Compound I-214] | 
50 to 75 | Cc1cc(C#CC2(O)CC2)ccc1-c1cn(CC2CCCCO2)nn1 (centres unmarked) [Compound I-215] | 
≤ 25 | OCc1cc(C#CC2CC2)ccc1-c1cn(CC2CCCCO2)nn1 (centres unmarked) [Compound I-216] | 
25 to 50 | N#CCc1cc(C#CC2CC2)ccc1-c1cn(CC2CCCCO2)nn1 (centres unmarked) [Compound I-217] | 
≤ 25 | C[S+]([O-])c1cc(C#CC2CC2)ccc1-c1cn(CC2CCCCO2)nn1 (centres unmarked) [Compound I-218] | 
≤ 25 | CS(=O)(=O)c1cc(C#CC2CC2)ccc1-c1cn(CC2CCCCO2)nn1 (centres unmarked) [Compound I-219] | 
> 75 | CCc1cc(C#CC2CC2)cnc1-c1cn(CC2CCCCO2)nn1 (centres unmarked) [Compound I-220] | IC50: 0.3 to 1 µM
50 to 75 | Cc1cc(C#CC2CC2)ccc1-c1cn(C[C@H]2COC(C)(C)O2)nn1 [Compound I-222] | 
25 to 50 | Cc1cc(C#CC2CC2)ccc1-c1cn(CC(O)CO)nn1 (centres unmarked) [Compound I-224] | 
